# Measured values reported in US20240334941A1, “HIGH-EFFICACY NATURAL PRESERVATIVES” (BioVeritas, LLC, priority 2023, published 2024).
# Tests used:
# [1] = Water activity and pH of bread dough prior to baking; format: physicochemical
# Method: Example 2. A comparative shelf-life study was performed using pup loaves by an ISO/IEC 17025:2017 certified laboratory, Great Plains Analytical Laboratory, Kansas City, MO, USA. A standard white bread dough formulation was prepared (pup loaves) for each test group. Approximately 500 grams of dry material was used to prepare 3 pup loaves per test group. Various preservatives, which were to act as mold inhibitors, were added to the doughs. The amount of preservatives added to each dough is reported as a weight percentage based on the mass of flour in the dough (“on flour”). Each mold inhibitor was thoroughly mixed into the formulation for each dough. The percentage inclusion and type of mold inhibitor on flour is outlined in Table 2. Three of the mold inhibitors were made with acetic and propionic acid produced from fermentation using a mixed consortium of naturally occurring microorganisms or microbiome using the methods previously described herein. […] The second and third comparative mold inhibitors were high-efficacy clean-label acetate/propionate mold inhibitors, with one having an acetate/propionate weight ratio of 1:1 (50 wt. % acetate/50 wt. % propionate) (BV1) and the other one having an acetate/propionate weight ratio of 1:6 (14 wt. % acetate/86 wt. % propionate) (BV2). […] After mixing, the dough was divided into disposable bread pans and allowed to ferment for 3 hours at 86±1° F. and 60% relative humidity, proofed for 55 minutes at 109±1° F. and 90% humidity, and baked for 15 minutes at 425±1° F. This procedure was repeated for each test group for a total of 30 loaves of bread. The internal temperature of each loaf was recorded upon exiting the oven and prior to packaging (Table 3). In addition, water activity and pH were measured in one of the replicates for each group prior to baking using a water activity meter and a pH meter (Table 4). The product odor (similar to baseline or off odor development), color, and general appearance were evaluated daily. Each sample was opened and closed daily until visible mold appeared.
# [2] = Water activity and pH of tortilla dough prior to baking; format: physicochemical
# Method: After mixing the tortilla formulation ingredients with the corresponding mold inhibitor, samples of rounded dough were placed onto parchment paper and allowed to ferment for 20 minutes at 82±2° F. and 85% relative humidity. The dough was then pressed into a tortilla form, cooked, cooled, and packaged. This procedure was repeated for each test group. One replicate of dough for each group was tested prior to baking. Water activity was measured using a water activity meter. Measurements for pH were made using a pH meter. The product odor (similar to baseline or off odor development), color, and general appearance were evaluated daily. Each sample was opened and closed daily, until visible mold appeared.
# mold [3] = experiment: Comparative shelf-life study using flour tortillas, days until visible mold
# Method: Example 3. A comparative shelf-life study using flour tortillas was performed by an ISO/IEC 17025:2017 certified laboratory, Great Plains Analytical Laboratory, Kansas City, MO. The purpose of this study was to compare the efficacy of preservatives, which were to act as mold inhibitors, in a tortilla formulation. A total of 10 test groups of tortillas were prepared: 9 test groups contained various mold inhibitors and one test group served as control, without a mold inhibitor (no additive). Test groups were stored at ambient temperature for 30 days to determine the overall efficacy of the inhibitors and compare the performance of the inhibitors in the tortilla formulation. […]
# After mixing the tortilla formulation ingredients with the corresponding mold inhibitor, samples of rounded dough were placed onto parchment paper and allowed to ferment for 20 minutes at 82±2° F. and 85% relative humidity. […] Water activity was measured using a water activity meter. […] The product odor (similar to baseline or off odor development), color, and general appearance were evaluated daily. […]
# The results for the tortilla shelf-life study comparing the preservative/mold inhibitors treatments are graphically shown in FIG. 2. Three tortilla samples were produced using each of the inhibitor treatments, and the number of days until mold was observed was recorded for each sample. […]
# mold [4] = experiment: Comparative shelf-life study using pup loaves (white bread), days until visible mold
# Method: Example 2. A comparative shelf-life study was performed using pup loaves by an ISO/IEC 17025:2017 certified laboratory, Great Plains Analytical Laboratory, Kansas City, MO, USA. A standard white bread dough formulation was prepared (pup loaves) for each test group. Approximately 500 grams of dry material was used to prepare 3 pup loaves per test group. Various preservatives, which were to act as mold inhibitors, were added to the doughs. The amount of preservatives added to each dough is reported as a weight percentage based on the mass of flour in the dough (“on flour”). Each mold inhibitor was thoroughly mixed into the formulation for each dough. The percentage inclusion and type of mold inhibitor on flour is outlined in Table 2. Three of the mold inhibitors were made with acetic and propionic acid produced from fermentation using a mixed consortium of naturally occurring microorganisms or microbiome using the methods previously described herein. […] The second and third comparative mold inhibitors were high-efficacy clean-label acetate/propionate mold inhibitors, with one having an acetate/propionate weight ratio of 1:1 (50 wt. % acetate/50 wt. % propionate) (BV1) and the other one having an acetate/propionate weight ratio of 1:6 (14 wt. % acetate/86 wt. % propionate) (BV2). […] The internal temperature of each loaf was recorded upon exiting the oven and prior to packaging (Table 3). In addition, water activity and pH were measured in one of the replicates for each group prior to baking using a water activity meter and a pH meter (Table 4). The product odor (similar to baseline or off odor development), color, and general appearance were evaluated daily. […]
# Three sample loaves were produced using each of the inhibitor treatments, and the number of days until mold was observed was recorded for each loaf. […] No off-odors were detected over time in any of the treatments.
# mold [5] = experiment: Shelf-life study using pup loaves (Example 6), day of visible mold; settings: ambient temperature
# Method: Example 6. In another example, a comparative shelf-life and sensory study using pup loaves was performed by an ISO/IEC 17025:2017 certified laboratory, Great Plains Analytical Laboratory, Kansas City, MO. A total of seven test groups of white bread in a pup loaf formulation were prepared. […] Test groups were stored at ambient temperature for between 7 and 15 days to determine the overall efficacy of the inhibitors and compare the performance of the inhibitors in the bread formulation. Sensory analysis was performed examining the flavor and crumb texture for all samples. The studies were conducted concurrently.
# A standard white bread dough formulation was prepared for each test group. Three pup loaves were prepared for each test group for the visual examination portion of the study. […] The bread was baked for 15 minutes at 425±1° F. Internal temperatures were recorded upon exiting the oven and prior to packaging. […]
# Chemical testing included the evaluation of pH on the dough out of the mixer (Table 15). […] A bake score, height, and volume were recorded for each test group. […] The pup loaves were evaluated for visible mold every day for the shelf-life portion of the study. A photograph of the visible mold was taken the day it was detected. The sensory analysis consisted of a quantitative descriptive analysis and a ranking performed by a trained panel. […]
# [6] = Dough pH out of the mixer (Example 6); format: physicochemical
# Method: Chemical testing included the evaluation of pH on the dough out of the mixer (Table 15). Measurement for pH was made using a pH meter. A bake score, height, and volume were recorded for each test group. The bake score examined the crust color, loaf symmetry, uniformity of the break and shred, crumb texture, crumb grain, crumb color, taste, and aroma. The pup loaves were evaluated for visible mold every day for the shelf-life portion of the study. A photograph of the visible mold was taken the day it was detected. The sensory analysis consisted of a quantitative descriptive analysis and a ranking performed by a trained panel. […] The descriptive analysis covered the crumb texture and flavor of the test groups. The sensory analysis was performed on Days 3, 6, 9, 12, and 15. No sensory analysis was performed on bread that had visible mold.
# The temperature of the loaves out of the oven and prior to packaging were recorded in Table 14. Dough was removed from the mixing bowl and then analyzed for pH.
# [7] = 0.3 wt. % on flour (order of Table 2)
# [8] = 1 wt. % on flour (order of Table 2)
Structure (SMILES),"Water Activity [1, 7]","pH [1, 7]","Water Activity [1, 8]","pH [1, 8]","Water Activity [2, 7]","pH [2, 7]","Water Activity [2, 8]","pH [2, 8]","days on which visible mold developed (replicates) (mold [3]; 1 wt. % on flour, 68-73 F, opened daily) [days]","mold after day 30 up to day 45 (mold [3]; 1 wt. %, remaining replicate, bags no longer opened) [days]","mold after day 30 up to day 45 (mold [4]; 1 wt. % on flour, bags no longer opened each day)","day visible mold developed (replicate loaves) (mold [4]; 1 wt. % on flour, stored 70-73 F, opened daily, 30-day study) [days]",Day of Visible Mold (mold [5]; 0.5 wt. %) [days],Day of Visible Mold (mold [5]; 0.8 wt. %) [days],mold inhibitor performance (mold [4]; 0.3 wt. % on flour),Dough pH ([6]; 0.5 wt. % mold inhibitor),Dough pH ([6]; 0.8 wt. % mold inhibitor)
"CCC(=O)[O-].CCC(=O)[O-].[Ca+2] [BV CP, calcium propionate]",0.9535,5.65,0.9448,5.73,0.9548,6.98,0.9612,6.87,30,> 45,no signs of mold growth or off odor at day 45,> 30,–,–,–,–,–
"CCC(=O)[O-].CCC(=O)[O-].[Ca+2] [CCP, calcium propionate, reference compound]",0.9564,5.40,–,–,0.9502,6.7,–,–,–,–,–,–,7,9,performed similar to the natural calcium propionate (BV CP),5.34,5.53
